Earlier results as cited in patent US20060003984A1, “Monobactam compositions and methods of use thereof” (Chiron Corporation, priority 2001, published 2006).

Test system: Gram-negative bacteria
Conditions: many Gram-negative bacteria

NC[C@H]1O[C@H](O[C@H]2[C@H](O)[C@@H](O[C@H]3O[C@H](CO)[C@@H](O)[C@H](N)[C@H]3O)[C@H](N)C[C@@H]2N)[C@H](N)C[C@@H]1O [tobramycin]
concentration effective in inhibiting growth: < 4 µg/mL
